Patent US20160229835A1, “NOVEL PYRIDYLOXYACETYL TETRAHYDROISOQUINOLINE COMPOUNDS USEFUL AS NAMPT INHIBITORS” (ELI LILLY AND COMPANY, priority 2013, published 2016)

Tested on: A2780 cells
Assay: A2780 Proliferation Assay ±NAM (Nicotinamide)
Type: cell-based
Conditions: Homo sapiens, A2780, 72 h, 10 mM nicotinamide added to the growth medium, read-out: IC50 (proliferation of A2780 cells with 10 mM nicotinamide)
Description: The purpose of this assay is to measure the ability of a compound to inhibit proliferation of A2780 cells (the NCI-DCTD Tumor repository) dependent on the NAMPT-mediated NAD^+ formation in the presence or absence of higher concentrations of NAM (10 mM) in vitro. The A2780 cell proliferation assay uses assay-ready frozen cells. To prepare assay-ready frozen A2780 cells, A2780 cells, an ovarian cancer cell line, are cultured in growth media containing RPMI 1640 (Gibco 30-2001) supplemented with 10% FBS, in T-150 flasks for 3-4 days. Cells are then treated with 4 mL of 0.25% (v/v) trypsin for 1 minute (Hyclone SH30042). Trypsin-treated cells are then diluted with 10 mL of growth media, and the cell slurry is gently mixed and then decanted to a centrifuge tube. Cells are counted and then pelleted by centrifugation at 1400 rpm for 5 minutes. After centrifugation the supernatant is removed and the cell pellets are re-suspended in GIBCO® RECOVERY™ Cell Culture Freezing Medium (Invitrogen 12648-010) at 2-5×10^6 cells/mL and then aliquoted at 1 mL volumes into cryovials. Cryovials are stored initially at −80° C. for 16 hours, and then transferred to liquid nitrogen for long term storage.
One day before the planned initiation of compound treatment portion of the assay, one vial of assay ready frozen cells is thawed, and the cells are washed with 50 mL of growth medium. Cells are counted and then diluted to 2.8×10^4 cells/mL and then plated at a rate of 2500 cells/well (90 μL per well) to BD Poly-D-Lysine, 96 well black plates (BD Biocoat 35-4640). Plates are then covered and incubated overnight under 5% CO2 at 37° C. The next day in a separate plate (V bottom Nunc 249946), a ten-point compound dilution series for each compound is prepared in growth media containing 2% DMSO (v/v, 0.2% final) with or without 100 mM NAM (10 mM final). Then 10 μL of compounds after a ten-point series dilution from either 2 or 0.1 μM (depending potency of each compound) to 50 pM or 5 pM (final) are added to the wells of the cell plates. Cell plates are covered and incubated for 72 hours under 5% CO2 at 37° C.
On the day of the viability assessment, one vial of GF-AFC substrate (CELL TITER-FLUOR™ Cell Viability Assay Kit, Promega G6081) is vortexed and the substrate is transferred to one vial of thawed CELL TITER-FLUOR™ Assay Buffer. The resulting CELL TITER-FLUOR™ reagent is then vortexed well to thoroughly dissolve the substrate. The CELL TITER-FLUOR™ reagent is then diluted (1:2) in growth medium and 50 μL of diluted CELL TITER-FLUOR™ reagent is added to each well of the cell plate. The cell plate is covered and incubated under 5% CO2 at 37° C. for 1-3 hours. Finally the cell plates are removed from the incubator and the well fluorescence is measured on an Envision® Multilabel Reader (Perkin Elmer, λeX 355/λem 495). Fluorescence from compound treated wells is compared to the no cell and no compound treatment control wells to calculate percent inhibition. The percent inhibition and ten-point compound concentration data is fit to a four-parameter logistic equation using ACTIVITYBASE 4.0 Equation 205. Each compound is tested 2-4 times in this assay.

Row | IC50 | Structure (SMILES)
1 | > 100 nM | CC(C)(O)CS(=O)(=O)Nc1ccc2c(c1)CCN(C(=O)COc1cccnc1)C2 [Example 1, 2-Hydroxy-2-methyl-N-[2-[2-(3-pyridyloxy)acetyl]-3,4-dihydro-1H-isoquinolin-6-yl]propane-1-sulfonamide]
2 | > 100 nM | COCCS(=O)(=O)Nc1ccc2c(c1)CCN(C(=O)COc1cccnc1)C2 [Example 2, 2-Methoxy-N-[2-[2-(3-pyridyloxy)acetyl]-3,4-dihydro-1H-isoquinolin-6-yl]ethanesulfonamide]
